Assay results: patent US6294547A, “Naphthyridine deratives or salts thereof” (Nippon Kayaku Kabushiki Kaisha, priority 1997, dated 2001)
Structures can show the parent of a compound that is named as a salt.

What was measured:
[1] = target: T1, NK-1 receptors (Cavia porcellus, UniProt P30547); assay: Antagonism for NK-1 receptor (methylsubstance P induced contraction of isolated ileum); type: cell-based, Hartley strain male guinea pigs; conditions: guinea pig ileum; methylsubstance P 1×10^-9 M; 35 min incubation; read-out: IC50 of a drug on methylsubstance P induced contraction
T1 construct: the ileums were isolated; from tissue; host or cells: isolated ileum of male Hartley guinea pigs
Method: Hartley strain male guinea pigs were killed by a blow on the head and blood-letting, and the ileums were isolated. A specimen of about 3 cm in length was prepared and then suspended at a tension of 0.5 gw in a 15 magunus bath with an internal volume of 15 ml containing Krebs-Henseleit solution of 37° C. while introducing a mixed gas of 95% O2 +5% CO2 into the bath. As the Krebs-Henseleit solution, that containing atropine (1×10^-6 M) and indomethacin (5×10^-6 M) was used for preventing the participation of intrinsic acetylcholine and prostaglandins. Methylsubstance P (1×10^-9 M), a specific stimulating agent for NK-1 receptors were repeatedly allowed to act on the specimen at intervals of 40 minutes. After the percentage of contraction due to methylsubstance P became constant, a drug was added to the solution to each of various concentrations, followed by incubation for 35 minutes, and methyl-substance P was allowed to act on the specimen again. The rate of inhibition by the drug was determined relative to the percentage of contraction immediately before the addition of the drug, and the 50% inhibitory concentration (IC50) of the drug was determined by means of a regression line.

[2] = target: T2, NK-3 receptors (Cavia porcellus, UniProt P30098); assay: Antagonism for NK-3 receptors (senktide induced contraction of isolated ileum); type: cell-based, Hartley strain male guinea pigs; conditions: guinea pig ileum; senctide 1×10^-9 M; 35 min incubation; read-out: IC50 of a drug on senctide induced contraction
T2 construct: the ileums were isolated; from tissue; host or cells: isolated ileum of male Hartley guinea pigs
T2 sequence (P30098 1-440): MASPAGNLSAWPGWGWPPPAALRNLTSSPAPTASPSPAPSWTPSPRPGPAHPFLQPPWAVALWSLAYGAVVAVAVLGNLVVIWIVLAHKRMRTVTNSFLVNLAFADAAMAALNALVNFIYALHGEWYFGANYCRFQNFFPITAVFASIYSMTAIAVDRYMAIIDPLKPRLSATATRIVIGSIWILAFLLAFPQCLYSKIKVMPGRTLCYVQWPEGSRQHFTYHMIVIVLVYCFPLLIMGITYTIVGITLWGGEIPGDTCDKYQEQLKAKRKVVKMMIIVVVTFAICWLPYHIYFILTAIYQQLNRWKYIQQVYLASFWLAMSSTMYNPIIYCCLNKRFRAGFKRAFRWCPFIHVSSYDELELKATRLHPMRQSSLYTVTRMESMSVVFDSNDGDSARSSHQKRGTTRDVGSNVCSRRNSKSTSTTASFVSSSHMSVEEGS
Method: Hartley strain male guinea pigs were killed by a blow on the head and blood-letting, and the ileums were isolated. A specimen of about 3 cm in length was prepared and then suspended at a tension of 0.5 gw in a magunus bath with an internal volume of 15 ml containing Krebs-Henseleit solution of 37° C. while introducing a mixed gas of 95% O2 and 5% CO2 into the bath. As the Krebs-Henseleit solution, that containing atropine (1×10^-6 M) and indomethacin (5×10^-6 M) was used for preventing the participation of intrinsic acetylcholine and prostaglandins. Senctide (1×10^-9 M), a specific stimulating agent for NK-3 receptors was repeatedly allowed to act on the specimen at intervals of 50 minutes. After the percentage of contraction due to senctide became constant, a drug was added to the solution to each of various concentrations, followed by incubation for 35 minutes, and senctide was allowed to act on the specimen again. The rate of inhibition by the drug was determined relative to the percentage of contraction immediately before the addition of the drug, and the 50% inhibitory concentration (IC50) was determined by means of a regression line.

T1 sequence (P30547 whole entry): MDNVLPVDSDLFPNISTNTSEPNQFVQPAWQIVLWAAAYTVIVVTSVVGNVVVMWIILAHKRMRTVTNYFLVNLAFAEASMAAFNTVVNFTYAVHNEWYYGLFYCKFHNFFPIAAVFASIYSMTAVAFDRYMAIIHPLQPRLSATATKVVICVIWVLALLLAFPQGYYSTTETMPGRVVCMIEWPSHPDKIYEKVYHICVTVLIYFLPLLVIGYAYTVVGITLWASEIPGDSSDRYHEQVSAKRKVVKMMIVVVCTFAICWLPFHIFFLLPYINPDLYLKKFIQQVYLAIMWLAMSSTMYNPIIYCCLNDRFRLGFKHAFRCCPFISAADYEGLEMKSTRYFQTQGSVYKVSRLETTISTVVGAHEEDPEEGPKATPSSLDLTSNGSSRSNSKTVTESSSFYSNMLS

CN(CC(CCN1CCc2nc3c(cc2C1)CCCC3)c1ccc(Cl)c(Cl)c1)C(=O)c1ccccc1 (single isomer, unassigned) [Example 25, 2-[(-)-4-(N-benzoyl-N-methyl)amino-3-(3,4-dichlorophenylbutyll-1,2,3,4,6,7,8,9-octahydro-benzo[b][1,6]naphthyridine fumarate]
IC50 [1]: 470 nM | IC50 [2]: 180 nM
